A short description of this data set: Pharmacokinetics in Male Cynomolgus Monkeys. The class given is in vivo. The settings on record: cynomolgus monkey, plasma; for Vd: read-out: Vdss. Here is the method: Assay 5. Pharmacokinetics in Male Cynomolgus Monkeys
The pharmacokinetic (PK) profile in plasma of two compounds of the present invention was determined in male cynomolgus monkeys following single dose IV (5 mg/kg) and PO (10 mg/kg) administration. This study was performed under non-GLP conditions, and unless otherwise stated, all analytical reagents were standard laboratory reagent grade. The study was conducted in accordance with IACUC guidelines in compliance with the Animal Welfare Act, the Guide for the Care and Use of Laboratory Animals.
Male cynomolgus monkeys, non-naïve, are acceptable species to support PK studies for compounds intended for use in humans. The animals were supplied by Hainan Jingang Laboratory Animal Co. Ltd (Nayangxintan Fucheng Town, Qiongshan District, Haikou Hainan Province, P.R. China) or another qualified source. During in-life, the animals were individually housed in stainless-steel mesh cages that are in accordance with the National Research Council “Guide for the Care and Use of Laboratory Animals”. Animals were fed twice daily with approximately 120 g of certified monkey diet. These amounts were adjusted as necessary based on food consumption of the group or an individual body weight changes of the group or an individual and/or changes in the certified diet. In addition, animals received fruit daily as nutritional enrichment and reverse osmosis (RO) water was available to all animals, ad libitum. RO water was analyzed every three months and every batch of feed was analyzed before using. Feed and water analyses records were maintained in the facility records. The room(s) were controlled and monitored for relative humidity range of 40-70% (any excursion from this range for more than 3 hours was documented as a deviation) and temperature range of 18-26° C. (any excursion from this range was documented as a deviation) with 10 to 20 air changes/hour. The room was on a 12-hour light/dark cycle except when interruptions were necessitated by study activities. Normal healthy animals weighing >2 kg and age ≥2 years old were selected for studies. The monkeys were identified by a unique skin tattoo on chest.
2-[4-[[4-[1-(2,6-dioxo-3-piperidyl)-3-methyl-2-oxo-benzimidazol-5-yl]-1-piperidyl]methyl]cyclohexyl]-7-isopropoxy-N-pyrazolo[1,5-a]pyrimidin-3-yl-imidazo[1,2-a]pyridine-6-carboxamide, as described in Example 48 (“Compound 48”), and 2-((1R,4S)-4-((4-(1-(2,6-dioxopiperidin-3-yl)-3-methyl-2-oxo-2,3-dihydro-1H-benzo[d]imidazol-5-yl)piperidin-1-yl)methyl)cyclohexyl)-N-(1-((1S,2R)-2-fluorocyclopropyl)-2-oxo-1,2-dihydropyridin-3-yl)-7-isopropoxyimidazo[1,2-a]pyridine-6-carboxamide, as described in Example 169 (“Compound 169”), were each formulated by dissolving the compound in polyethylene glycol (PEG400) (10%) with stirring, followed by the slow addition of 11.11% 2-Hydroxypropyl-beta-cyclodextrin (HPβCD) (90%) in water. Vehicle dose was PEG400 (10%) and 11.11% HP-β-CD (90%) in water. Formulations and vehicle were freshly prepared on of the day of dosing and stored at room temperature until used.
All animals were weighed prior to drug administration. The animals were divided into intravenous (IV) group and per os (PO) group for each compound tested, with 3 animals in each group. The vehicle dosing group included IV and PO groups, making a total of 6 groups of 3 animals each, for 18 animals total. The IV dose was administered by intravenous bolus injection into the cephalic or saphenous vein. The vein used for the dosing was not used for blood sample collection for the first 4 hours post dose. The PO dose was administered by nasogastric tube. The nasogastric PO doses were flushed using 3 mL of vehicle (approximately 3 times volume of nasogastric tube). […] The dosing volume was 2.5 mL/kg for the IV groups and 5 mL/kg for the PO groups. The dosing concentration was 2 mg/mL for both IV and PO groups. Feeding conditions were overnight fasting for PO group but not for IV group. […]

Read-outs that look alike come from different tables or passages of the source.

As to `CC(C)Oc1cc2nc([C@H]3CC[C@H](CN4CCC(c5ccc6c(c5)n(C)c(=O)n6C5CCC(=O)NC5=O)CC4)CC3)cn2cc1C(=O)Nc1cccn([C@H]2C[C@H]2F)c1=O` (stereo partly drawn) [Compound 169, 2-((1R,4S)-4-((4-(1-(2,6-dioxopiperidin-3-yl)-3-methyl-2-oxo-2,3-dihydro-1H-benzo[d]imidazol-5-yl)piperidin-1-yl)methyl)cyclohexyl)-N-(1-((1S,2R)-2-fluorocyclopropyl)-2-oxo-1,2-dihydropyridin-3-yl)-7-isopropoxyimidazo[1,2-a]pyridine-6-carboxamide], under “5 mg/kg IV, mean (Table 11)”, the AUC(0-t) (as a rule, the area under the concentration-time curve up to a stated or last time point) was found to be 4.68 µg·h/mL; the C0 is 10.3 µg/mL; the clearance (as a rule, the rate of elimination divided by the concentration) was 1.02 L/h/kg; the half-life (as a rule, the time needed for the level to fall by half in the phase considered) is 44.3 h. In addition, for the setting “5 mg/kg IV, mean (Table 11)”, the Vd is 32.6 L/kg. For the setting “10 mg/kg PO, mean (Table 12)”, the AUC(0-t) turned out to be 1.02 µg·h/mL; the Cmax (in general, the highest concentration seen after dosing) was determined as 0.101 µg/mL; the bioavailability (as a rule, dose-corrected exposure relative to a reference, in per cent) came out at 10.8%.
Where the note is “5 mg/kg IV, mean”, `CC(C)Oc1cc2nc([C@H]3CC[C@H](CN4CCC(c5ccc6c(c5)n(C)c(=O)n6C5CCC(=O)NC5=O)CC4)CC3)cn2cc1C(=O)Nc1cnn2cccnc12` (stereo partly shown) [Compound 48, 2-[4-[[4-[1-(2,6-dioxo-3-piperidyl)-3-methyl-2-oxo-benzimidazol-5-yl]-1-piperidyl]methyl]cyclohexyl]-7-isopropoxy-N-pyrazolo[1,5-a]pyrimidin-3-yl-imidazo[1,2-a]pyridine-6-carboxamide] showed an AUC(0-t) of 1.74 µg·h/mL, a C0 of 5.97 µg/mL, a clearance of 2.92 L/h/kg and a half-life of 44.2 h. Under “5 mg/kg IV, mean”, the Vd was 70.3 L/kg. Where the note is “10 mg/kg PO, mean”, this compound registered an AUC(0-t) of 0.0843 µg·h/mL, a Cmax of 0.0183 µg/mL and a bioavailability of 2.42%.

The values above are taken from patent US20240343733A1, “COMPOUNDS FOR TARGETING DEGRADATION OF IRAK4 PROTEINS” (BIOGEN MA INC., priority 2021, published 2024).
